Tests used:
[1] = test system: dopamine neurons in the pars compacta region of the substantia nigra; assay: 6-OHDA lesion, count of TH immunopositive neurons in substantia nigra (Experiments 4 and 5); type: in vivo, Wistar rats
Experimental: This experiment was blind with respect to the treatment (with GPE or the vehicle) and with respect to the counting of neurons expressing TH (between sections from animals treated with GPE or vehicle).
The objective of this experiment was to determine the effects of administering GPE on the expression of tyrosine hydroxylase (TH) in the presence or absence of CNS injury. […] Specifically, 9 pairs of adult male Wistar rats (280-320 g) were prepared under 3% halothane/O2 anaesthesia. The oxygen free radical producing neurotoxin 6-hydroxydopamine (6-OHDA) which produces degeneration of dopamine neurones (8 μg/2 μl) was injected into the median forebrain bundle using a 30 gauge needle (coordinates: anterior-posterior +4.7 mm, right +1.6 mm, vertical -8.5 mm). A guide cannula was placed on the dura 7.5 mm anterior from stereotaxic zero and 1.5 mm from the midline on the right. The rats were left to recover at room temperature. […]
The total counts of neurons were compared between the GPE and the vehicle treated group. Data were analysed with paired t-test and presented as mean ±sem.
Experiment 5 was performed using a second set of rats (9 pairs) using the same experimental parameters except that only the immunopositive neurons at 2 levels of the substantia nigra were counted.

substantia nigra neurons = assay: Medial forebrain bundle transection, TH immunopositive cell survival (Experiment 7); type: in vivo, Wistar rats; settings: lesioned side; daily supranigral GPE 0.3 μg for two weeks
Experimental: Adult male Wistar rats (200-220 g) were anaesthetized with 75 mg/kg Nembutal and positioned in a stereotaxic apparatus. Unilateral transection of the medial forebrain bundle which contains the ascending nigral dopaminergic projection fibers was made 1.3 mm rostral to the rostral tip of the substantia nigra using a retractable wire knife (David Kopf Instruments, Tujunga, Calif.). The knife was lowered into the brain using the following coordinates from the atlas of Paxinos and Watson (1996), Sydney: Academic Press: 3.3 mm posterior to Bregma, 2.4 mm lateral from midline, and 8.5 mm ventral from skull, the blade was extended 2.0 mm toward midline, raised 2.5 mm dorsally, retracted and extended again, and then returned 2.5 mm ventrally. The wire blade was retracted and the knife withdrawn. Next, a 22-gauge metal guide cannula was permanently fixed into place supranigrally at 5.0 mm posterior to Bregma, 2.0 mm lateral to midline, and 6.8 mm ventral to skull. A second set of intact unlesioned rats were cannulated supranigrally at the same coordinates. […]
Immunopositive cells were counted in the central substantia nigra. […] To reveal percent survival, percent changes were calculated by dividing the ipsilateral value by contralateral value.

NCC(=O)N1CCC[C@H]1C(=O)N[C@@H](CCC(=O)O)C(=O)O [GPE, gly-pro-glu]
protection of dopaminergic neurons against 6-OHDA (TH expression in SNc) ([1]; Experiments 4 and 5): provided protection
number of TH immunopositive dopamine neurons ([1]; lesioned (right) side, 3 μg GPE 2 hours after 6-OHDA, 14 days, Experiment 4): increased
percent cell survival of TH immunopositive neurons (substantia nigra neurons): increased

Reference: patent publication US6187906A, “Methods to improve neural outcome” (Aukland Uniservices Limited, priority 1998, dated 2001)
